Experimental data: paper PMC11274643, “Design, Synthesis, Characterization, and Cytotoxicity of New Pyrazolylmethylene-2-thioxoimidazolidin-4-one Derivatives towards Androgen-Sensitive LNCaP Prostate Cancer Cells” (Biomolecules, 2024)

Key:
[1] = system: AR+LNCaP androgen-sensitive human prostate cancer cell line; assay: MTT in vitro cytotoxicity assay, 24 h incubation; type: cell-based; details: for IC50: Homo sapiens, MTT; for Selective Index Wi38/Lncap: ratio of IC50 values
Method: (§1) The antitumor properties of pyrazolylmethylene-2-thioxoimidazolidin-4-one derivatives (3a–p) against androgen-sensitive (AR^+LNCaP; ATCC CRL-1740, Accession: CVCL_0395) and androgen-insensitive (AR^-PC-3; ATCC CRL-1435, Accession: CVCL_D5ZS) human prostate cancer cell lines in addition to normal human lung fibroblast cell line (Wi38, Accession: CVCL_2759) were evaluated by MTT assay. AR^+LNCaP, AR^-PC-3, and Wi38 cell lines were purchased frozen in liquid nitrogen from Egyptian Company for Production of Vaccines, Sera and Drugs, Cairo, Egypt (VACSERA). Tumor cell lines were stored as monolayer cultures in DMEM supplemented with 10% FBS and 1% penicillin–streptomycin. MTT assay was carried out as described previously in the literature. In brief, AR^+LNCaP, AR^-PC-3, and Wi38 cells were cultured into 96-well plates containing 100 µL of culture medium per each well. […] A control containing only culture medium was also applied. The assay was performed in triplicate. The cells were incubated overnight to grow at 37 °C in 5% CO2. After removing the growth medium, 100 µL of MTT (0.4 mg/mL of PBS) were added. After 24 h of incubation, the supernatant was removed and 100 µL of DMSO (Sigma Aldrich, Germany) were then added to each sample. Absorbance at 550 nm was measured. The formula (Reading of extract/Reading of negative control) × 100 was applied to calculate the viability percentage. The IC50 value of test compounds (3a–p) was also determined using CPE measurements of normal Wi38 cells (normal human lung fibroblast cells). The MTT assay was repeated with the test compounds (3i, 3k, 3o, 3j, 3p, and 3m) using the three cell types which were stimulated by 1 nM DHT after 48 h of incubation. IC50 values were estimated using Graph Pad Prism computer software (International Scientific Community, San Diego, CA, USA) from linear regression analysis of the concentration–response curves plotted for each tested compound [36].
(§2) In vitro cytotoxicity assay was performed to elucidate the antitumor properties of the synthesized derivatives of pyrazolylmethylene-2-thioxoimidazolidin-4-one. […] The cytotoxicity assay was performed using MTT assay as described in the Materials and Methods Section 2.4.1. The test compounds were dissolved in DMSO as stock solutions (<0.5% (v/v)) and stored in the dark at −20 °C. The human prostate cancer cells and normal human lung fibroblast cells were subjected to variable doses of the compounds for 24 h.

[2] = system: Wi38 normal human lung fibroblast cell line; assay: MTT in vitro cytotoxicity assay, 24 h incubation; type: cell-based; details: WI-38
Method: as §1, §2

[3] = system: AR-PC-3 androgen-insensitive human prostate cancer cell line; assay: MTT in vitro cytotoxicity assay, 24 h incubation; type: cell-based; details: for IC50: Homo sapiens, MTT; for Selective Index Wi38/PC-3: ratio of IC50 values
Method: as §1, §2

[4] = system: AR+LNCaP cells; assay: Cell apoptosis assay (Annexin V-FITC, flow cytometry); type: cell-based, human; details: IC50 concentration, 1 nM DHT, 24 h
Method: Cell apoptosis assay was performed to ensure the efficacy of compounds 3i and 3k against the progression of AR^+LNCaP tumor cell growth in the presence of 1 nM DHT. Untreated AR^+LNCaP and Enzalutamide-treated AR^+LNCaP were used in this assay as negative and positive controls, respectively. AR^+LNCaP cells were precultured in 25 cm^2 flasks. Briefly, 1 nM DHT was then added to the growing cells. […] AR^+LNCaP cells were harvested and fixed with 70% (v/v) ethanol in FBS (Sigma-Aldrich, Germany), then maintained at 4 °C overnight. The cells were resuspended in FBS containing 0.1% (v/v) Triton X-100, 40 µg/mL […], and 0.1 mg/mL RNase then incubated in a dark chamber at 37 °C for 30 min. A flow-cytometer (Becton Dickinson, San Jose, CA, USA) supplemented with an argon ion laser at a wavelength of 488 nm was used to analyze the AR^+LNCaP cell apoptotic stages. Based on the protocol described by Ozgur et al. (2003), analysis of the data was implemented using Multicycle Software (Phoenix Flow Systems, San Diego, CA, USA; http://www.phoenixflow.com/index.html).
The active compounds 3i and 3k were further analyzed to evaluate their antitumor properties against the growth of the AR^+LNCaP prostate cancer cell line. […] Untreated AR^+LNCaP cells and Enzalutamide reference drug were also used as negative and positive controls in this assay, respectively.

[5] = system: AR+LNCaP cells; assay: DNA content at cell cycle stages (Propidium Iodide flow cytometry); type: cell-based, human; details: IC50 concentration, 1 nM DHT
Method: The amount of DNA contents of AR^+LNCaP cells stimulated with 1 nM DHT and treated with representative test compounds 3i and 3k at the different stages of the cell cycle were quantitatively evaluated as described previously. […] The Ab139418–Propidium Iodide Flow Cytometry Kit for Cell Cycle Analysis (ab139418, Abcam, Cambridge, UK) was employed for this assay following the procedures provided by the supplier.
Firstly, the ab139418-Propidium Iodide Flow Cytometry Kit for Cell Cycle Analysis (Bio vision, Boston, MA, USA) was used to quantify DNA contents at each cell cycle stage as an indicator of the cell cycle growth arrest.

[6] = system: AR+LNCaP androgen-sensitive human prostate cancer cell line; assay: MTT cytotoxicity assay in presence of 1 nM DHT, 48 h incubation; type: cell-based; details: for IC50: Homo sapiens; for Selectivity AR-/AR+: IC50 PC-3 / IC50 LNCaP
Method: as §1
(§3) The assay was performed in the presence of dihydrotestosterone (1 nM DHT) for 48 h of incubation as previously described. DHT is a potent inducer of androgens that enhances prostate cancer disease progression.

[7] = system: Wi38 normal human lung fibroblast cell line; assay: as above; type: cell-based; details: WI-38, read-out: IC50 Wi38
Method: as §1, §3

[8] = system: AR-PC-3 androgen-insensitive human prostate cancer cell line; assay: as above; type: cell-based
Method: as §1, §3

[9] = system: active human caspase-3 in AR+LNCaP cells; assay: Detection of active Caspase 3 in AR+LNCaP cell lysates (Invitrogen Elisa kit); type: cell-based; design: Caspase 3 Conc. (Average): unit not given here; details: for active Caspase 3 fold change compared to untreated cells / induction of active caspase 3 as a percentage of the reference drug Enzalutamide: IC50 concentration; for active Caspase 3 fold change compared to untreated cells: 1 nM DHT, AR+LNCaP lysate; for induction of active caspase 3 as a percentage of the reference drug Enzalutamide: AR+LNCaP; for Caspase 3 fld / Caspase 3: LNCaP, supplement lab report; for Caspase 3 fld: fold of control; for Caspase 3 Conc. (Average): supplement ELISA read-out, average of two wells
Method: Untreated AR^+LNCaP and Enzalutamide-treated AR^+LNCaP were used as negative and positive controls, respectively. AR^+LNCaP cells were cultured in 96-well plates at a cell density of 1 × 10^4 cells/well. Cells were then lysed with 50 µL lysis buffer/well supplemented with the Invitrogen Elisa kit for detection of active human caspase-3 (Invitrogen, Camarillo, CA, USA). Plates were frozen at −80 °C for 30 min and then thawed. The lysate was mixed with 2 Z-DEVD-R110 substrate and incubated at room temperature for 30 min. A fluorescence microplate reader (Tecan, Mainz-Kastel, Germany), was used to measure fluorescence via excitation at 496 nm and emission detection at 520 nm. Values were normalized with total protein content. Active caspase 3 accumulation was determined based on standard dilution series of Human Caspase-3 samples provided with the kit. […]

Row | Structure (SMILES) | melting point | IC50 [1] | Selective Index Wi38/Lncap [1] | IC50 [2] | IC50 [3] | Selective Index Wi38/PC-3 [3] | Early Apoptosis (%) [4] | Late Apoptosis (%) [4] | Necrotic Cells (%) [4] | Total Apoptosis (%) [4] | DNA Content (%) G0–G1 [5] | IC50 [6] | Selectivity AR-/AR+ [6] | CC50 [7] | IC50 [8] | active Caspase 3 fold change compared to untreated cells [9] | induction of active caspase 3 as a percentage of the reference drug Enzalutamide [9] | Caspase 3 fld [9] | Caspase 3 [9] | Caspase 3 Conc. (Average) [9] | also measured
1 | O=C1NC(=S)NC1=Cc1cn(-c2ccc(F)cc2)nc1-c1ccc(Cl)cc1 [Compound 3i, 5-((3-(4-Chlorophenyl)-1-(4-fluorophenyl)-1H-pyrazol-4-yl)methylene)-2-thioxoimidazolidin-4-one] | 168 to 170 °C | 12.07 ± 0.09 µM | 2.5 | 29.93 ± 0.12 µM | 19.5 ± 0.21 µM | 1.5 | 11.47% | 7.55% | 2.77% | 21.79% | 58.33% | 6.08 ± 0.04 µM | 2.6 | 21.93 ± 0.14 µM | 15.52 ± 0.12 µM | 4.7 fold | 71.4% | 4.667 | 358.9 pg/mL | 358.9 | DNA Content (%) G2/M [5]: 22.48%; DNA Content (%) S [5]: 19.19%
2 | O=C1NC(=S)NC1=Cc1cn(-c2ccc(F)cc2)nc1-c1ccc(C(F)(F)F)cc1 [Compound 3k, 5-((1-(4-Fluorophenyl)-3-(4-(trifluoromethyl)phenyl)-1H-pyrazol-4-yl)methylene)-2-thioxoimidazolidin-4-one] | 210 to 212 °C | 10.3 ± 0.14 µM | 3.2 | 32.81 ± 0.08 µM | 22.5 ± 0.29 µM | 1.5 | 12.11% | 16.89% | 6.02% | 35.02% | 65.21% | 5.22 ± 0.12 µM | 2.7 | 19.81 ± 0.07 µM | 13.9 ± 0.18 µM | 5.4 fold | 81.2% | 5.304 | 407.9 pg/mL | 407.9 | DNA Content (%) G2/M [5]: 19.18%; DNA Content (%) S [5]: 15.61%
3 | Cc1ccc(-c2nn(-c3ccc(F)cc3)cc2C=C2NC(=S)NC2=O)cc1 [Compound 3m, 5-((1-(4-Fluorophenyl)-3-(p-tolyl)-1H-pyrazol-4-yl)methylene)-2-thioxoimidazolidin-4-one] | 167 to 169 °C | 12.97 ± 0.06 µM | 2.4 | 30.54 ± 0.08 µM | 22.5 ± 0.46 µM | 1.3 | – | – | – | – | – | 10.5 ± 0.11 µM | 1.3 | 23.33 ± 0.19 µM | 13.1 ± 0.14 µM | 3.2 fold | 48.6% | 3.176 | 244.3 pg/mL | 244.3 | –

Now from value to compound, other results behind:

Row | melting point | Structure (SMILES) | IC50 [1] | Selective Index Wi38/Lncap [1] | IC50 [2] | IC50 [3] | Selective Index Wi38/PC-3 [3] | Early Apoptosis (%) [4] | Late Apoptosis (%) [4] | Necrotic Cells (%) [4] | Total Apoptosis (%) [4] | DNA Content (%) G0–G1 [5] | IC50 [6] | Selectivity AR-/AR+ [6] | CC50 [7] | IC50 [8] | active Caspase 3 fold change compared to untreated cells [9] | induction of active caspase 3 as a percentage of the reference drug Enzalutamide [9] | Caspase 3 fld [9] | Caspase 3 [9] | Caspase 3 Conc. (Average) [9] | also measured
4 | 205 to 207 °C | O=C1NC(=S)NC1=Cc1cn(-c2ccc(C(F)(F)F)cc2)nc1-c1ccc(F)cc1 [Compound 3o, 5-((3-(4-Fluorophenyl)-1-(4-(trifluoromethyl)phenyl)-1H-pyrazol-4-yl)methylene)-2-thioxoimidazolidin-4-one] | 12.66 ± 0.11 µM | 2.0 | 25.08 ± 0.08 µM | 21.08 ± 0.1 µM | 1.2 | – | – | – | – | – | 11.75 ± 0.07 µM | 1.4 | 22.35 ± 0.13 µM | 16.4 ± 0.17 µM | 3.5 fold | 53.4% | 3.490 | 268.4 pg/mL | 268.4 | –
5 | 223 to 225 °C | O=C1NC(=S)NC1=Cc1cn(-c2ccc(C(F)(F)F)cc2)nc1-c1ccc(C(F)(F)F)cc1 [Compound 3p, 5-((1,3-Bis(4-(trifluoromethyl)phenyl)-1H-pyrazol-4-yl)methylene)-2-thioxoimidazolidin-4-one] | 12.11 ± 0.08 µM | 2.1 | 25.35 ± 0.12 µM | 23.2 ± 0.12 µM | 1.0 | – | – | – | – | – | 5.91 ± 0.13 µM | 2.7 | 20.18 ± 0.14 µM | 15.2 ± 0.25 µM | 4.4 fold | 66.6% | 4.351 | 334.6 pg/mL | 334.6 | –
